We go through eleven molecules from ChEMBL document CHEMBL4265960, “Dithiocarbamates: Efficient metallo-β-lactamase inhibitors with good antibacterial activity when combined with meropenem” (Bioorg Med Chem Lett, 2018).

Data set [1] relates to Escherichia coli. Briefly: Toxicity against Escherichia coli harboring IMP4 assessed as reduction in bacterial growth after 16 to 18 hrs by broth microdilution method. Type of data set: organism-based. A general note: In broth dilution the organism is exposed to a series of concentrations in liquid medium.
The test system of data set [2] is HeLa. Briefly: Cytotoxicity against human HeLa cells at 32 ug/ml after 24 hrs by calcein-AM/propidium iodide staining based fluorescence microscopic analysis. Type of data set: cell-based.
Data set [3] deals with Escherichia coli. Description: Toxicity against Escherichia coli harboring NDM1 after 16 to 18 hrs by broth microdilution method. It is filed as organism-based.
The next data set relates to Erythrocyte. Briefly: Hemolytic activity against sheep RBC at 1.953 to 1000 ug/ml after 1 hr. It is filed as ADME, cell-based, Ovis aries.
The subject of data set [4] is Escherichia coli. Briefly: Inhibition of Escherichia coli IMP4 assessed as potentiation of meropenem-induced bactericidal activity by measuring reduction in bacterial colonies at 8 times MIC incubated up to 3 hrs followed by replating on agar plates and further incubated for 16 to 18 hrs measured for 24 hrs by time kill assay.
Data set [5] relates to Citrobacter freundii. Briefly: Inhibition of Citrobacter freundii NDM1 assessed as potentiation of meropenem-induced antibacterial activity by measuring meropenem MIC at 64 ug/ml after 16 to 18 hrs by broth microdilution method (reference value: 20 ug/ml).
Data set [6] deals with Metallo-beta-lactamase type 2 (Klebsiella pneumoniae) (UniProt C7C422).
Description: Inhibition of Klebsiella pneumoniae NDM1 assessed as potentiation of meropenem-induced antibacterial activity by measuring meropenem MIC at 64 ug/ml after 16 to 18 hrs by broth microdilution method (Rvb = 40 to 80 ug/ml)
Data set [7] deals with Escherichia coli. Description: Inhibition of Escherichia coli IMP4 assessed as potentiation of meropenem-induced antibacterial activity by measuring zone of inhibition at 10 uL after 16 to 18 hrs by disc diffusion method (reference value: 9.8 +/- 0.6 millimeter). (A growth-free zone around the sample is the usual read-out of agar diffusion tests.)
For data set [8], the target named is T1, Metallo-beta-lactamase NDM-4 (Escherichia coli) (UniProt H6WZS9).
T1 sequence (whole entry): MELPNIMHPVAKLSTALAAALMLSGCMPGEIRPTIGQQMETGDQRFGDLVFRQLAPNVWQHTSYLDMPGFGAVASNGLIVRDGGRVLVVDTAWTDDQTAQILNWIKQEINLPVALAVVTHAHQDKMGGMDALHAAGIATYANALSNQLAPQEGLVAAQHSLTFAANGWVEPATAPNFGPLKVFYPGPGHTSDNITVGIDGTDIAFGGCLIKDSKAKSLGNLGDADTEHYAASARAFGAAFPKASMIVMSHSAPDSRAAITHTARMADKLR
Briefly: Inhibition of Escherichia coli NDM4 assessed as potentiation of meropenem-induced antibacterial activity by measuring zone of inhibition at 10 uL after 16 to 18 hrs by disc diffusion method (reference value: 9.6 +/- 0.5 millimeter).

Data set [9] addresses Beta-lactamase (Klebsiella pneumoniae) (UniProt Q4LDF1).
Description: Inhibition of Klebsiella pneumoniae IMP4 assessed as potentiation of meropenem-induced antibacterial activity by measuring meropenem MIC at 64 ug/ml after 16 to 18 hrs by broth microdilution method (Rvb = 20 to 40 ug/ml)
For data set [10], the system named is Proteus mirabilis. Description: Inhibition of Proteus mirabilis NDM1 assessed as potentiation of meropenem-induced antibacterial activity by measuring meropenem MIC at 64 ug/ml after 16 to 18 hrs by broth microdilution method (reference value: 20 to 160 ug/ml).
The test system of data set [11] is Escherichia coli. Description: Inhibition of Escherichia coli IMP4 assessed as potentiation of meropenem-induced bactericidal activity by measuring bacterial count at 4 times MIC incubated for 8 hrs followed by replating on agar plates and further incubated for 16 to 18 hrs measured for 24 hrs by time kill assay.
Data set [12] addresses Beta-lactamase NDM-1 (Escherichia coli) (UniProt E5KIY2).
Description: Inhibition of Escherichia coli NDM1 assessed as potentiation of meropenem-induced antibacterial activity by measuring meropenem MIC at 64 ug/ml after 16 to 18 hrs by broth microdilution method (Rvb = 10 to 320 ug/ml)
Data set [13] concerns Escherichia coli. Briefly: Inhibition of Escherichia coli IMP4 assessed as potentiation of meropenem-induced antibacterial activity by measuring meropenem MIC at 64 ug/ml after 16 to 18 hrs by broth microdilution method (reference value: 20 to 160 ug/ml).
For data set [14], the system named is HeLa. Briefly: Cytotoxicity against human HeLa cells after 24 hrs by CCK8 assay. It is filed as cell-based.
In data set [15] the target is Beta-lactamase NDM-1 (Escherichia coli) (UniProt E5KIY2). The source holds these as a separate data set.
Description: Inhibition of Escherichia coli NDM1 assessed as potentiation of meropenem-induced bactericidal activity by measuring meropenem MBC after 20 to 24 hrs in presence of 50% blood
Data set [16] has the same target. This is another data set of the same source.
Description: Inhibition of Escherichia coli NDM1 assessed as potentiation of meropenem-induced bactericidal activity by measuring meropenem MBC after 20 to 24 hrs in presence of 50% serum
For data set [17], the system named is Escherichia coli. Description: Inhibition of Escherichia coli IMP4 assessed as potentiation of meropenem-induced antibacterial activity by measuring reduction in bacterial growth at 64 ug/ml after 16 to 18 hrs in presence of ZnCl2 by broth microdilution method.
The subject of data set [18] is Escherichia coli. Description: Inhibition of Escherichia coli IMP4 assessed as potentiation of meropenem-induced bactericidal activity by measuring bacterial count at 4 times MIC incubated for 24 hrs followed by replating on agar plates and further incubated for 16 to 18 hrs measured for 24 hrs by time kill assay.
Data set [19] deals with Escherichia coli. Description: Inhibition of Escherichia coli IMP4 assessed as potentiation of meropenem-induced bactericidal activity by measuring reduction in bacterial colonies at 8 times MIC incubated up to 8 hrs followed by replating on agar plates and further incubated for 16 to 18 hrs measured for 24 hrs by time kill assay.
Data set [20] deals with Citrobacter freundii. Briefly: Inhibition of Citrobacter freundii NDM1 assessed as potentiation of meropenem-induced antibacterial activity by measuring fold reduction in meropenem MIC at 64 ug/ml after 16 to 18 hrs by broth microdilution method relative to meropenem alone.
Data set [21] relates to Proteus mirabilis. Description: Inhibition of Proteus mirabilis NDM1 assessed as potentiation of meropenem-induced antibacterial activity by measuring fold reduction in meropenem MIC at 64 ug/ml after 16 to 18 hrs by broth microdilution method relative to meropenem alone.
Data set [22] relates to Escherichia coli. Description: Inhibition of Escherichia coli IMP4 assessed as potentiation of meropenem-induced antibacterial activity by measuring bacterial growth at 64 ug/ml after 16 to 18 hrs by broth microdilution method (reference value: 93.43 +/- 2.12%). Also noted: scale not given: the % may be the effect or the level left.
Data set [23] relates to Escherichia coli. Briefly: Inhibition of Escherichia coli IMP4 assessed as potentiation of meropenem-induced bactericidal activity by measuring reduction in bacterial colonies at 4 to 8 times MIC incubated for 3 hrs followed by replating on agar plates and further incubated for 16 to 18 hrs measured for 24 hrs by time kill assay.
The test system of data set [24] is Escherichia coli. Briefly: Inhibition of Escherichia coli IMP4 assessed as potentiation of meropenem-induced bactericidal activity by measuring bacterial count at 8 times MIC incubated for 24 hrs followed by replating on agar plates and further incubated for 16 to 18 hrs measured for 24 hrs by time kill assay.

Converted amounts (≈) assume the structure as drawn. The source made the active and inactive calls. The rule behind the calls is not given here.

One may read the IC50 as the concentration needed to halve the response being measured.

`CCN(CC)C(=S)[S][Na]` [DITIOCARB SODIUM]: the Activity entry in the data set with Escherichia coli [1], in the data set on HeLa [2] and in the data set on Erythrocyte was “Non-Toxic” throughout. For the same molecule, the MIC in the data set with Escherichia coli [3] is above 128 µg/mL.

With `CCN(CC)C(=S)[S-].[Na+]` [DITIOCARB SODIUM], the outcome with Escherichia coli [4] was Active. Besides, the MIC in the data set on Citrobacter freundii [5] is below 0.0312 µg/mL; in [6], below 2 µg/mL; in [9], below 2 µg/mL; in the data set with Proteus mirabilis [10], 0.5 to 4 µg/mL; in data set [12], 1 to 16 µg/mL; in the data set with Escherichia coli [13] it was below 16 µg/mL. The inhibition zone (IZ) in the data set with Escherichia coli [7] is 17.2 mm; in [8], 18.9 mm. In addition, the Activity in the data set on Escherichia coli [11] lay in the range of 3 to 4 log10CFU/ml. In the data set with HeLa [14], this molecule displayed an IC50 above 1280 µg/mL.

As for `S=C([S-])N1CCCCC1.[Na+]`, the MBC was 1 µg/mL in data set [15] and below 0.0312 µg/mL in data set [16]. Also, the Activity result in the data set with Escherichia coli [1] is “Non-Toxic”; with Escherichia coli [18], 1 to 2 log10CFU/ml; in the data set with HeLa [2] it was “Non-Toxic”; in the data set with Escherichia coli [22], 3.55%; in the data set with Erythrocyte, “Non-Toxic”. The result in the data set with Escherichia coli [17] was inactive. In addition, the MIC is below 0.0312 µg/mL in data set [6]; below 0.0312 µg/mL in [9]; 4 to 16 µg/mL with Proteus mirabilis [10]; above 128 µg/mL with Escherichia coli [3]; 0.25 µg/mL in [12]; below 16 µg/mL in the data set with Escherichia coli [13]. Moreover, the inhibition zone (IZ) in the data set with Escherichia coli [7] worked out at 24.2 mm; in data set [8] it was 23.9 mm. Moreover, the result in the data set on Escherichia coli [19] was Active. Further, the fold change (FC) in the data set with Citrobacter freundii [20] and in the data set on Proteus mirabilis [21] was below 320 in each case. Moreover, the IC50 in the data set with HeLa [14] turned out to be 634 µg/mL.

In the case of `S=C(S)N1CCOCC1`, the MIC in the data set with Citrobacter freundii [5] was 2 µg/mL; in data set [6], 4 to 16 µg/mL (≈ 24.5 to 98 µM); in data set [9], 8 to 16 µg/mL (≈ 49 to 98 µM); with Proteus mirabilis [10], 16 µg/mL; in [12] it was 8 µg/mL (≈ 49 µM); in the data set with Escherichia coli [13], 2 to 16 µg/mL.

`CCCCCCNC(=S)S`: the MIC entry (with Citrobacter freundii [5]; in data set [6]) was “inactive” each time. Further, the “inhibition zone (IZ)” value (in the data set with Escherichia coli [7]; in data set [8]) was “inactive” in each case. In addition, the MIC in data set [9] was 16 µg/mL (≈ 90.2 µM); with Proteus mirabilis [10] it was 0.25 µg/mL; in [12], 16 µg/mL (≈ 90.2 µM); with Escherichia coli [13], 2 to 16 µg/mL.

Turning to `O=C(O)CN1CCN(CC(=O)O)CCN(CC(=O)O)CC1`, the inhibition zone (IZ) came to 20.3 mm in the data set on Escherichia coli [7] and 22.9 mm in data set [8]. Moreover, the outcome in the data set with Escherichia coli [23] was Active.

Consider `CCCCCCN(CCCCCC)C(=S)S`, for which the MIC in the data set on Citrobacter freundii [5] is 8 µg/mL; in data set [6], 8 to 16 µg/mL (≈ 30.6 to 61.2 µM); in data set [9] it was 16 µg/mL (≈ 61.2 µM); in the data set on Proteus mirabilis [10], 8 to 16 µg/mL; in data set [12], 8 µg/mL (≈ 30.6 µM); in the data set on Escherichia coli [13] it was 4 to 16 µg/mL. In addition, the “inhibition zone (IZ)” value (in the data set on Escherichia coli [7]; in data set [8]) was “inactive” in each case.

For the molecule `CCCCCCCCCCCCCCNC(=S)S`, the MIC entry (in the data set with Citrobacter freundii [5]; in data set [6]; in data set [9]; with Proteus mirabilis [10]; in [12]; with Escherichia coli [13]) was “inactive” each time. In addition, the “inhibition zone (IZ)” value (in the data set with Escherichia coli [7]; in data set [8]) was “inactive” throughout.

For `S=C([S-])N1CCCC1.[Na+]`, the Activity result is “Non-Toxic” in the data set with Escherichia coli [1], 9 to 10 log10CFU/ml with Escherichia coli [24], “Non-Toxic” in the data set on HeLa [2] and “Non-Toxic” in the data set on Erythrocyte. The MIC in [6] is below 0.0312 µg/mL; in data set [9] it was below 0.0312 µg/mL; in the data set with Proteus mirabilis [10] it was 2 to 8 µg/mL; in the data set on Escherichia coli [3], above 128 µg/mL; in data set [12], 2 µg/mL; in the data set with Escherichia coli [13], below 16 µg/mL. Further, the inhibition zone (IZ) in the data set on Escherichia coli [7] is 22.8 mm; in data set [8], 22.1 mm. Moreover, the fold change (FC) with Proteus mirabilis [21] was below 320. Moreover, the IC50 in the data set on HeLa [14] came out at 349 µg/mL.

With `S=C(S)N1CCN(C(=S)S)CC1`, the MIC is 2 µg/mL with Citrobacter freundii [5]; 4 to 16 µg/mL (≈ 16.8 to 67.1 µM) in data set [6]; 8 to 16 µg/mL (≈ 33.6 to 67.1 µM) in [9]; 4 to 8 µg/mL with Proteus mirabilis [10]; 8 to 16 µg/mL (≈ 33.6 to 67.1 µM) in data set [12]; 4 to 16 µg/mL with Escherichia coli [13]. For the same molecule, the “inhibition zone (IZ)” value (in the data set on Escherichia coli [7]; in data set [8]) was “inactive” each time.

With `CCCCCCCCN(CCCCCCCC)C(=S)S`, the MIC in the data set on Citrobacter freundii [5] is 4 µg/mL; in data set [6], 1 to 8 µg/mL (≈ 3.15 to 25.2 µM); in [9], below 1 µg/mL; in the data set on Proteus mirabilis [10] it was 2 to 4 µg/mL; in data set [12], 4 to 16 µg/mL (≈ 12.6 to 50.4 µM); with Escherichia coli [13], 1 to 8 µg/mL. The “inhibition zone (IZ)” value (with Escherichia coli [7]; in [8]) was “inactive” in each case.
